# Data: PMC4364341, “NBD delivery improves the disease phenotype of the golden retriever model of Duchenne muscular dystrophy” (Skeletal Muscle, 2014)
# Experiments:
# [1] = dog, in vivo, iv
# Text: Having established a treatment regimen that provides efficacy of NBD in mice, we next asked whether such therapy could be applied to a larger animal model of DMD. […] In addition, normal hematology (white blood cell, red blood cell, platelet counts) and serum chemistry (ALT, AST, GGT, bilirubin, creatinine, potassium, creatine kinase) profiles were noted following a single IV injection of NBD in normal dogs (data not shown). Based on our collective data, a preclinical trial in GRMD dogs was initiated with four primary outcomes: skeletal muscle function, MRI of pelvic limb muscles, histopathologic features of skeletal muscles, and safety. Juvenile GRMD (n = 6) and wild type (n = 3) dogs at 2 months of age were treated for 4 months by IV infusions, 3× weekly, at 10 mg/Kg. Results were compared with those collected from untreated GRMD and wild type dogs through a separate, natural history study.
# GRMD dogs = test: Tibiotarsal joint (TTJ) tetanic force/torque, GRMD dogs; assay type: in vivo, dog; conditions: for Absolute Tetanic Extension Force / Absolute Tetanic Extension Torque / Absolute Tetanic Flexion Force / Absolute Tetanic Flexion Torque / Body-mass Corrected Tetanic Extension Force / Body-mass Corrected Tetanic Extension Torque / Body-mass Corrected Tetanic Flexion Force / Body-mass Corrected Tetanic Flexion Torque: n = 6
# Description: The GRMD disease phenotype was initially determined based on elevation of serum creatine kinase and confirmed by PCR. Two cohorts of GRMD dogs were treated with a 4-month course of NBD (10 mg/kg, IV) (American Peptides; Sunnyvale, CA, USA), beginning at approximately 2 months of age. The first cohort included four GRMD (Wasabi, Pepper, Hiver, and Automne) and two wild type (Cumin and Fennel) dogs, while the second cohort included two GRMD (Peach and Kiwi) and one wild type (Mango) dog. Results were compared with those collected from 10 untreated GRMD dogs (Cilantro, Lyle, Napoleon, Summer, Jane, Cosmo, Dorothy, Toto, Hickory, and Zeke) and eight age-matched wild type littermates (Oregano, Parsley, Kip, Pedro, Pinkman, Saul, Heisenberg, and Tuco) through a parallel, but separate, natural history study in which functional, magnetic resonance imaging (MRI), and pathologic data were collected.
# For all tests, dogs were anesthetized (premeds: acepromazine maleate (0.02 mg/kg), butorphanol (0.4 mg/kg), and atropine sulfate (0.04 mg/kg); masked/intubated; and maintained with sevoflurane). To assess force and eccentric contraction decrement (below), dogs were positioned in dorsal recumbence in a custom-made stereotactic frame that aligns the tibia parallel to the table at a 90° angle to the femur. The angle at which maximal joint torque is generated during isometric contractions has been termed the optimal joint angle, which is analogous to the optimal fiber length (Lo) for individual muscle force measurements. Our choice of 90° as the optimal joint angle was based on studies in which torque was measured over a range of angles. The length-tension relationship was not shifted for normal versus GRMD dogs. TTJ flexion and extension torque (N-m) was measured by a rapid-response servomotor/force transducer (model 310B LR, Aurora Scientific, Inc., Aurora, ON, Canada) controlled by a PC using custom LabView software. Either the common peroneal (TTJ flexion) or tibial (TTJ extension) nerve was stimulated using paired stimulating and reference 27-gauge monopolar electrodes placed just distal to the fibular head (common peroneal nerve) or within the gastrocnemius muscles (tibial nerve), respectively. As a result, the paw of the distal pelvic limb pulled (flexion) or pushed against (extension) a pedal affixed to a transducer, providing a measure of isometric torque. Supramaximal 150 V, 100 μs pulses were applied (Model S48 Solid State Square Wave Stimulator; Grass Instruments, Quincy, MA, USA) in a tetanic run of 250 pulses (50/s). The site of contact for the paw with the lever (moment arm) was estimated to be 75% of the distance between the point of the hock and the distal digit. Torque (Newton-meters) was divided by the moment arm (meters) to convert to force (Newtons).
# [2] = NBD group, age 2 months (start of treatment)
# [3] = age 6 months, NBD 10 mg/kg IV 3x weekly for 4 months
sequence,measurement,setting,value
"TALDWSWLQTE [NBD, NBD peptide (…) fused to an Antennapedia protein transduction domain]",Hematology and serum chemistry profiles,[1],normal
same,Absolute Tetanic Extension Force,GRMD dogs; [2],7.50 ± 2.09 N
same,Absolute Tetanic Extension Torque,GRMD dogs; [2],0.62 ± 0.16 Nm
same,Absolute Tetanic Flexion Force,GRMD dogs; [2],2.05 ± 0.58 N
same,Absolute Tetanic Flexion Torque,GRMD dogs; [2],0.17 ± 0.06 Nm
same,Body-mass Corrected Tetanic Extension Force,GRMD dogs; [2],2.11 ± 0.70 N/kg
same,Body-mass Corrected Tetanic Extension Torque,GRMD dogs; [2],0.21 ± 0.07 Nm/kg
same,Body-mass Corrected Tetanic Flexion Force,GRMD dogs; [2],0.57 ± 0.15 N/kg
same,Body-mass Corrected Tetanic Flexion Torque,GRMD dogs; [2],0.05 ± 0.01 Nm/kg
same,Absolute Tetanic Extension Force,GRMD dogs; [3],"34.30 ± 9.65^1**,2 N"
same,Absolute Tetanic Extension Torque,GRMD dogs; [3],"4.55 ± 1.49^1**,2 Nm"
same,Absolute Tetanic Flexion Force,GRMD dogs; [3],6.79 ± 1.13^1 N
same,Absolute Tetanic Flexion Torque,GRMD dogs; [3],0.89 ± 0.18^1 Nm
same,Body-mass Corrected Tetanic Extension Force,GRMD dogs; [3],2.70 ± 0.65^2 N/kg
same,Body-mass Corrected Tetanic Extension Torque,GRMD dogs; [3],"0.36 ± 0.08^1*,2 Nm/kg"
same,Body-mass Corrected Tetanic Flexion Force,GRMD dogs; [3],0.55 ± 0.13 N/kg
same,Body-mass Corrected Tetanic Flexion Torque,GRMD dogs; [3],0.07 ± 0.02^1 Nm/kg
same,Increase in extension force vs untreated GRMD dogs,"GRMD dogs; pelvic limb, body-mass corrected, NBD 10 mg/kg IV 3x weekly for 4 months, P = 0.038",73%
